Measured values from PubChem BioAssay (NCI).
“And” between values parts separate entries of the source, which are not always exact repeats. Identical values can stand only once.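 Values below derive from 48-hour exposures of cells grown in 96-well plates, with endpoints linearly interpolated between the two concentrations bracketing the appropriate inhibition level. The concentration for 50% growth inhibition is given as GI50. Definition used: TGI = concentration required for complete inhibition of growth.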

Tests used:
Assay in all cases: DTP human tumour cell line panel, 48 h
KM12 colon = tested on: KM12 colon
SK-OV-3 ovarian = tested on: SK-OV-3 ovarian
ACHN renal = tested on: ACHN renal
OVCAR-4 ovarian = tested on: OVCAR-4 ovarian
OVCAR-8 ovarian = tested on: OVCAR-8 ovarian
SR leukemia = tested on: SR leukemia
RXF 393 renal = tested on: RXF 393 renal
MDA-MB-435 = tested on: MDA-MB-435
MDA-MB-231 breast = tested on: MDA-MB-231 breast
NCI/ADR-RES ovarian = tested on: NCI/ADR-RES ovarian

SMILES | TGI (KM12 colon) | TGI (SK-OV-3 ovarian) | TGI (ACHN renal) | TGI (OVCAR-4 ovarian) | TGI (OVCAR-8 ovarian) | TGI (SR leukemia) | TGI (RXF 393 renal) | TGI (MDA-MB-435) | TGI (MDA-MB-231 breast) | TGI (NCI/ADR-RES ovarian) | GI50 (KM12 colon) | GI50 (SK-OV-3 ovarian) | GI50 (SR leukemia) | GI50 (RXF 393 renal) | GI50 (ACHN renal) | GI50 (MDA-MB-231 breast) | GI50 (OVCAR-4 ovarian) | GI50 (NCI/ADR-RES ovarian) | GI50 (OVCAR-8 ovarian) | GI50 (MDA-MB-435)
COc1cc2c(cc1OC)C(=O)Cc1ccc(OC)c(OC)c1CN(C)CC2 | > 100 µM | > 100 µM | > 100 µM | > 100 µM | > 100 µM | – | – | – | – | – | – | – | – | – | – | – | – | – | – | –
c1ccc2c(c1)[nH]c1c2nc2ncccn21 | > 100 µM | > 100 µM | > 100 µM | > 100 µM | > 100 µM | > 100 µM | > 100 µM | – | – | – | – | – | – | – | – | – | – | – | – | –
COC(=O)c1ccc(Cl)cc1NC(=O)C1CCCCC1 | > 100 µM | – | > 100 µM | > 100 µM | > 100 µM | > 100 µM | > 100 µM | – | – | – | – | – | – | – | – | – | – | – | – | –
O=C1CC(O)(c2ccccc2)C(c2ccccc2)=C1c1ccccc1 (stereo not given) | > 100 µM | > 100 µM | > 100 µM | > 100 µM | > 100 µM | – | > 100 µM | – | – | – | – | – | – | – | – | – | – | – | – | –
COc1ccc2nc3ccccc3c(NCCCN(C)CCCl)c2c1 | 2.06 µM | 3.34 µM | 0.695 µM | 2.07 µM | 2.02 µM | 0.146 µM | 1.45 µM | 1.54 µM | – | – | – | – | – | – | – | – | – | – | – | –
S=c1nc(Cl)cc2[nH]c(Cl)cn12 | 33.9 µM | 8.4 µM | > 100 µM | 44.9 µM | 57.4 µM | – | > 100 µM | 4.74 µM | 43.9 µM | 6.89 µM | – | – | – | – | – | – | – | – | – | –
CC(C)(C)OC(=O)NC(CO)c1cccc(OCc2ccccc2)c1 (stereo not given) | > 100 µM | > 100 µM | > 100 µM | > 100 µM | > 100 µM | > 100 µM | > 100 µM | – | – | – | – | – | – | – | – | – | – | – | – | –
COc1ccc2oc(C(=O)O)c3c2c1CCC3 | – | > 100 µM | > 100 µM | > 100 µM | > 100 µM | – | > 100 µM | – | – | – | – | – | – | – | – | – | – | – | – | –
CC(=O)C1(N=Nc2ccc(S(N)(=O)=O)cc2)CCOC1=O (stereo not given) | > 100 µM | > 100 µM | > 100 µM | > 100 µM | > 100 µM | – | > 100 µM | > 100 µM | > 100 µM | > 100 µM | – | – | – | – | – | – | – | – | – | –
N#C/C(=C/Sc1ccccc1)C(=O)O | 99.3 µM | > 100 µM | > 100 µM | > 100 µM | 36.9 µM | > 100 µM | 58.2 µM | – | – | – | – | – | – | – | – | – | – | – | – | –
COc1cc(O)c2c(c1)C(=O)c1cc3c(c(O)c1C2=O)C(OC1OC(C)C(O)C(O)C1OC)C(OC)C(C)(O)C3=O (stereo not given) | 17.9 µM and 7.92 µM | 52 µM and 34.8 µM | 12.4 µM | 8.04 µM and 2.64 µM | 5.27 µM and 1.62 µM | > 100 µM | 6.72 µM and 4.38 µM | – | 9.2 µM | 15.8 µM and 11 µM | 3.11 µM and 2.33 µM | 5.2 µM | 2.16 µM | 1.01 µM | 2.4 µM | 2.66 µM | 1.7 µM | 2.86 µM | 1.42 µM and 0.373 µM | –
COc1ccc(-c2cc(-c3ccc(O)cc3)nc3n[nH]c(N)c23)cc1 | 40.7 µM | – | 87.9 µM | > 100 µM | 91.6 µM | > 100 µM | 92.5 µM | 47.4 µM | 50.3 µM | 51.9 µM | 16.3 µM | – | 24.1 µM | 29 µM | 18.2 µM | 14.9 µM | 43.3 µM | 23.1 µM | 26.1 µM | 22 µM
COc1ccc(OC(C(=O)O)c2ccccc2)c2c1CCCC2=O (stereo not given) | > 100 µM | > 100 µM | > 100 µM | > 100 µM | > 100 µM | – | – | – | – | – | – | – | – | – | – | – | – | – | – | –
